Experimental data taken from patent US20100248390A1, “COMPOSITIONS AND METHODS FOR IDENTIFYING LIGANDS OF ODORANT RECEPTORS” (DUKE UNIVERSITY, priority 2009, published 2010).
Structures can show the parent of a compound that is named as a salt. Where two headings read alike, the source gives them in different places. Each block holds one compound with its values, some of them ahead of it.

Columns and labels:
Assay in all cases: CRE-luciferase assay of odorant receptor activation (Dual-Glo, Hana3A cells, RTP1S), dose-response EC50
Format in all cases: cell-based
[1] = tested on: mouse odorant receptors (ORs); conditions: for log EC50, MOR271-1 / log EC50 (Table 4 value), MOR271-1: receptor MOR271-1; for log EC50 (Table 4 value), MOR258-17: receptor MOR258-17; for log EC50 (Table 4 value), MOR273-1: receptor MOR273-1; for log EC50 (Table 4 value), MOR5-1: receptor MOR5-1
Description: (§1) Cloning mouse and human ORs. […] OR open reading frames were amplified from genomic DNA using proofreading KOD DNA polymerase (Toyobo/Novagen) and subcloned into pCI expression vectors (Promega) containing the first 20 residues of human rhodopsin (Rho tag). The sequences of the cloned receptors were verified by sequencing (3100 Genetic Analyzer, ABI Biosystems). Immunocytochemistry and FACS analysis. […] For FACS analysis, phycoerythrin (PE)-conjugated anti-mouse IgG (Jackson Immunologicals) was used. In order to monitor the transfection efficiency, Green Fluorescent Protein (GFP) was co-transfected with the OR. The intensity of receptor cell surface expression was calculated as the ratio of PE and GFP expression. 7-aminoactinomycin D (Calbiochem) was added before flow cytometry to mark dead cells which were excluded from the analysis. The gate and mean of PE positive cells was normalized by GFP values. Luciferase assay. […] Odorant receptor activation leads to an increase in intracellular cAMP; CRE-luciferase (Stratagene) was used to measure this change. […] Hana3A cells were plated on poly-D-lysine-coated 96-well plates (BioCoat; Becton Dickinson). […] For each 96-well plate transfected, 1 μg of CRE-Luc, 1 μg of pRL-SV40, 5 μg of odorant receptor plasmid, and 1 μg of RTP1S was used. Approximately 24 hours post transfection, the medium was replaced with CD293 chemically defined medium (Gibco) and the plate was incubed for 30 min at 37° C. The medium was then replaced with 25 μL of odorant solution diluted in CD293 and the plate was incubated for 4 hrs at 37° C. and 5% CO2. The manufacturer's protocols for measuring luciferase and Renilla luciferase activities was followed. […] All luminescence values were divided by the Renilla Luciferase activity to control for transfection efficiency in a given well. Normalized luciferase activity was calculated using the formula (LN−Lmin)/(Lmax−Lmin), where LN is the luminescence of firefly luciferase in response to the odorant, Lmin is the minimum luciferase value on a plate or set of plates, and Lmax is the maximum luciferase value on a plate or set of plates. The data was analyzed using Microsoft Excel and GraphPad Prism 4. Screening procedure. The entire OR library was stimulated with eight separate odorant mixtures formed from 93 odorants (FIG. 12). […] A comparison between the 93 individual odorants at a 100 μM dose and a no-odor control was performed for all 290 […]. Each comparison was performed in triplicate; statistical significance was assessed by t-test (uncorrected for multiple comparisons). […] A single odorant was used on each plate to avoid cross-contamination, and each OR odorant dose was tested at least three times. The data was fit to a sigmoidal curve. […] Physicochemical descriptors. […] Receptor descriptors. […] Correlations between descriptors and responses. […] All odorants for which there were fewer than 3 responsive receptors were eliminated. For all remaining odorant pairs the Pearson correlation between EC50 vectors and the Euclidean distance between descriptor vectors was calculated. The Pearson correlation between these two sets of distances was then measured. Optimizing descriptors. […] In this method one begins with an empty set of descriptors. Each descriptor is combined with the previous set of descriptors and correlation values are computed for all of these candidate sets of descriptors. To reduce overfitting, the data is randomly divided into ten subsets and correlation values are computed for each leave-one out subset. The final correlation coefficient for each set of descriptors is the average of the correlation coefficients for each subset. The set with the best correlation coefficient then becomes the new set of descriptors and the process is repeated until the correlation coefficient increases by less than 0.004 in three consecutive iterations.

[2] = target: T1, human odorant receptors (ORs) (Homo sapiens, UniProt Q9Y3N9); conditions: receptor OR2W1
T1 construct: OR open reading frames were amplified from genomic DNA; expressed in transfected cells; host or cells: Hana3A cells, co-transfected with RTP1S, CRE-luciferase and pRL-SV40
T1 sequence (Q9Y3N9 1-320): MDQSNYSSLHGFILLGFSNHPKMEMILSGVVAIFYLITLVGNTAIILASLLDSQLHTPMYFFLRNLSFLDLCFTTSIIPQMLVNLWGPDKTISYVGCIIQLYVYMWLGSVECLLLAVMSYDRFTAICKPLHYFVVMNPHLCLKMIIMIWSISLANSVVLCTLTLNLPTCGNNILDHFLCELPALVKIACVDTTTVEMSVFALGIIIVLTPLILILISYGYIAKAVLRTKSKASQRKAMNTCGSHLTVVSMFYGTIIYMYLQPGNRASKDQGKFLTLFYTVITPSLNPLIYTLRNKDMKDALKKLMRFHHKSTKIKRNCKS
Description: as §1, with “For all remaining odorant pairs the Pearson correlation between EC50 vectors and the Euclidean distance between descriptor vectors was calculated.” left out, “subset.” for “subset. The set with the best correlation coefficient then becomes the new set of descriptors and the process is repeated until the correlation coefficient increases by less than 0.004 in three consecutive iterations.”
(§2) The entire OR library was stimulated with one of 8 odorant mixtures drawn from 93 odorants chosen to represent diverse functional groups, sizes, and structures (Table 3). Each mixture was applied at five different concentrations. […] The 93 odorants were then applied individually at 100 μM to the 290 mixture-responsive ORs.

[3] = target: T2, human odorant receptors (ORs) (Homo sapiens, UniProt Q9P1Q5); conditions: receptor OR1A1; read-out: log EC50 (Table 4 value), OR1A1 (converted)
T2 construct: OR open reading frames were amplified from genomic DNA; expressed in transfected cells; host or cells: Hana3A cells, co-transfected with RTP1S, CRE-luciferase and pRL-SV40
T2 sequence (Q9P1Q5 1-309): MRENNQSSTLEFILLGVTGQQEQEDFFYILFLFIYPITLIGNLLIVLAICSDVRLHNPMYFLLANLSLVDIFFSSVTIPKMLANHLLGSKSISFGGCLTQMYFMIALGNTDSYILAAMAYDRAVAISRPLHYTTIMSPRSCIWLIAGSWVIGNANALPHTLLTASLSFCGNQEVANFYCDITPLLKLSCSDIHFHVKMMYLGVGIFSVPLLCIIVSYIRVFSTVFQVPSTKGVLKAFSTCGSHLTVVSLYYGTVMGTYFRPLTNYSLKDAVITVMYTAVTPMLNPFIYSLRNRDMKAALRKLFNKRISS
Description: as §1, with “For all remaining odorant pairs the Pearson correlation between EC50 vectors and the Euclidean distance between descriptor vectors was calculated.” left out, “subset.” for “subset. The set with the best correlation coefficient then becomes the new set of descriptors and the process is repeated until the correlation coefficient increases by less than 0.004 in three consecutive iterations.”
as §2

[4] = read-out: log EC50 (Table 4 value), OR2W1 (converted)
[5] = read-out: log EC50 of odorant at OR2W1 (0 = no response) (converted)

log EC50 (Table 4 value), MOR30-1 ([1]; receptor MOR30-1): −4.033
log EC50 (Table 4 value), MOR37-1 ([1]; receptor MOR37-1): −3.477
Compound: CCCCCCCCCC=O [Daconal]

log EC50 (Table 4 value), MOR5-1 [1]: −3.749
log EC50 (Table 4 value), MOR25-1 ([1]; receptor MOR25-1): −4.194
log EC50 (Table 4 value), MOR30-1 ([1]; receptor MOR30-1): −4.987
log EC50 (Table 4 value), MOR33-1 ([1]; receptor MOR33-1): −4.487
log EC50 (Table 4 value), MOR37-1 ([1]; receptor MOR37-1): −4.323
log EC50 (Table 4 value), MOR40-1 ([1]; receptor MOR40-1): −4.121
log EC50 (Table 4 value), MOR203-1 ([1]; receptor MOR203-1): −3.751
log EC50 (Table 4 value), MOR258-17 [1]: −4.627
log EC50 (Table 4 value), MOR260-1 ([1]; receptor MOR260-1): −3.542
EC50 [2, 4]: 175 µM
Compound: CCCCCCCCCC(=O)O [Decanoic acid]

log EC50 (Table 4 value), MOR271-1 [1]: −4.077
log EC50 (Table 4 value), MOR272-1 ([1]; receptor MOR272-1): −5.25
log EC50 (Table 4 value), MOR273-1 [1]: −5.761
Compound: CCOC(=O)C(C)C [Ethyl isobutyrate]

log EC50 (Table 4 value), MOR1-1 ([1]; receptor MOR1-1): −3.823
log EC50 (Table 4 value), MOR5-1 [1]: −3.583
log EC50 (Table 4 value), MOR23-1 ([1]; receptor MOR23-1): −4.856
log EC50 (Table 4 value), MOR30-1 ([1]; receptor MOR30-1): −3.575
log EC50 (Table 4 value), MOR31-1 ([1]; receptor MOR31-1): −5.2
log EC50 (Table 4 value), MOR33-1 ([1]; receptor MOR33-1): −4.148
Compound: CCCCCCC(=O)O [Heptanoic acid]

log EC50 (Table 4 value), OR2W1 [2]: −4.056
Compound: CCCCCCC=O [Heptonal]

EC50 [2, 5]: 13.7 µM
Compound: CCCCCCOC(C)=O [Hexyl acetate]

EC50 [2, 5]: 43.6 µM
Compound: CCCCCCCC=O [Octanal]

log EC50 of odorant at MOR1-1 (0 = no response) ([1]; receptor MOR1-1): −4.813
Compound: CCCCC(=O)O [Pentanoic acid]

log EC50 of odorant at MOR9-1 (0 = no response) ([1]; receptor MOR9-1): −6.334
log EC50 of odorant at MOR15-1 (0 = no response) ([1]; receptor MOR15-1): −3.587
Compound: COc1cc(C(=O)O)ccc1O [Vanillic acid]

More lines, now with the values behind:

Compound: CCC(C(=O)O)c1ccccc1 (single isomer, unassigned; (-)) [(−)-2-Phenylbutric acid]
log EC50, MOR2-1 ([1]; receptor MOR2-1, 0 = no response): −2.982

Compound: CCCCCO [1-Pentanol]
log EC50, MOR41-1 ([1]; receptor MOR41-1, 0 = no response): −3.537

Compound: CCCCC(C)=O [2-Hexanone]
log EC50, MOR271-1 ([1]; 0 = no response): −4.936
log EC50, MOR272-1 ([1]; receptor MOR272-1, 0 = no response): −4.251
EC50 ([2]; 0 = no response, read-out: log EC50, OR2W1 (converted)): 73.3 µM

Compound: CCCC(C)=O [2-Penonone]
log EC50, MOR271-1 ([1]; 0 = no response): −5.111

Compound: O=c1cc(O)c2ccccc2o1 [4-Hydroxycoumarin]
log EC50 (Table 4 value), MOR41-1 ([1]; receptor MOR41-1): −4.344

Compound: CC12CCC(CC1=O)C2(C)C (stereo not drawn) [(−)-Camphor]
log EC50, MOR107-1 ([1]; receptor MOR107-1, 0 = no response): −3.704
log EC50, MOR128-2 ([1]; receptor MOR128-2, 0 = no response): −4.373
log EC50, MOR138-1 ([1]; receptor MOR138-1, 0 = no response): −4.952
log EC50, MOR139-1 ([1]; receptor MOR139-1, 0 = no response): −3.902
log EC50, MOR189-1 ([1]; receptor MOR189-1, 0 = no response): −4.839
log EC50, MOR277-1 ([1]; receptor MOR277-1, 0 = no response): −3.861

Compound: C=CCOC(=O)CCCCCC [Allyl heptanoate]
EC50 [3]: 475 µM

Compound: CCCCCOC(=O)CCCCC [Amyl hexanote]
log EC50 (Table 4 value), MOR258-17 [1]: −4.462

Compound: c1ccccc1 [Benzene]
log EC50 (Table 4 value), MOR271-1 [1]: −4.005

Compound: CCCCOC=O [Butyl formate]
EC50 [2, 4]: 37.4 µM

Compound: O=C1CCCCC1 [Cyclohexanone]
log EC50 (Table 4 value), MOR41-1 ([1]; receptor MOR41-1): −3.456
log EC50 (Table 4 value), MOR136-1 ([1]; receptor MOR136-1): −3.065
log EC50 (Table 4 value), MOR139-1 ([1]; receptor MOR139-1): −3.138
log EC50 (Table 4 value), MOR185-1 ([1]; receptor MOR185-1): −3.594
log EC50 (Table 4 value), MOR251-1 ([1]; receptor MOR251-1): −3.193
log EC50 (Table 4 value), MOR253-1 ([1]; receptor MOR253-1): −3.219
log EC50 (Table 4 value), MOR258-1 ([1]; receptor MOR258-1): −3.824
log EC50 (Table 4 value), MOR258-17 [1]: −4.1
log EC50 (Table 4 value), MOR271-1 [1]: −3.463
log EC50 (Table 4 value), MOR272-1 ([1]; receptor MOR272-1): −3.254
log EC50 (Table 4 value), MOR273-1 [1]: −3.208
log EC50 (Table 4 value), MOR277-1 ([1]; receptor MOR277-1): −3.568

Compound: CCCCCCO [Hexanol]
log EC50 (Table 4 value), MOR1-1 ([1]; receptor MOR1-1): −3.987
log EC50 (Table 4 value), MOR4-1 ([1]; receptor MOR4-1): −3.231
log EC50 (Table 4 value), MOR271-1 [1]: −3.322
log EC50 (Table 4 value), OR2W1 [2]: −5.102

Compound: CCCCCCCCC=O [Nonanal]
log EC50 of odorant at MOR30-1 (0 = no response) ([1]; receptor MOR30-1): −3.914
log EC50 of odorant at MOR33-1 (0 = no response) ([1]; receptor MOR33-1): −3.234
log EC50 of odorant at MOR37-1 (0 = no response) ([1]; receptor MOR37-1): −3.295
log EC50 of odorant at MOR40-1 (0 = no response) ([1]; receptor MOR40-1): −3.194
EC50 [2, 5]: 252 µM
